In patent US5770382A, “Tricyclic retinoids, methods for their production and use” (Ligand Pharmaceuticals, Inc., priority 1995, dated 1998):
Entries after “also recorded” stand apart in the source; their conditions may differ.

Legend:
RAR and RXR receptors = assay: Co-transfection assay, summary for RARs and RXRs; type: cell-based; settings: for potency profile in comparison to 9-cis retinoic acid (in words): versus 9-cis
Procedure: (§1) Utilizing the "cis-trans" or "co-transfection" assay described by Evans et al., Science, 240:889-95 (May 13, 1988), the disclosure of which is herein incorporated by reference, the retinoid compounds of the present invention were tested and found to have strong, specific activity as either selective RAR agonists, selective RXR agonists, or as pan-agonist activators of both RAR and RXR receptors. This assay is described in further detail in U.S. Pat. Nos. 4,981,784 and 5,071,773, the disclosures of which are incorporated herein by reference.
(§2) The co-transfection assay provides a method for identifying functional agonists which mimic, or antagonists which inhibit, the effect of native hormones, and quantifying their activity for responsive IR proteins. In this regard, the co-transfection assay mimics an in vivo system in the laboratory. Importantly, activity in the co-transfection assay correlates very well with known in vivo activity, such that the co-transfection assay functions as a qualitative and quantitative predictor of a tested compounds Ln vivo pharmacology. See, e.g., T. Berger et al. 41 J. Steroid Biochem. Molec. Biol. 733 (1992), the disclosure of which is herein incorporated by reference.
(§3) In the co-transfection assay, a cloned cDNA for an IR (e.g., human RARα, RARβ, RXRγ) under the control of a constitutive promoter (e.g., the SV 40 promoter) is introduced by transfection (a procedure to induce cells to take up foreign genes) into a background cell substantially devoid of endogenous IRs. This introduced gene directs the recipient cells to make the IR protein of interest. A second gene is also introduced (co-transfected) into the same cells in conjunction with the IR gene. This second gene, comprising the cDNA for a reporter protein, such as firefly luciferase (LUC), controlled by an appropriate hormone responsive promoter containing a hormone response element (HRE). This reporter plasmid functions as a reporter for the transcription-modulating activity of the target IR. Thus, the reporter acts as a surrogate for the products (mRNA then protein) normally expressed by a gene under control of the target receptor and its native hormone.
(§4) The co-transfection assay can detect small molecule agonists or antagonists of target IRs. Exposing the transfected cells to an agonist ligand compound increases reporter activity in the transfected cells. This activity can be conveniently measured, e.g., by increasing luciferase production, which reflects compound-dependent, IR-mediated increases in reporter transcription. […] . Increasing concentrations of a suspected antagonist will decrease the reporter signal (e.g., luciferase production). The co-transfection assay is therefore useful to detect both agonists and antagonists of specific IRs. Furthermore, it determines not only whether a compound interacts with a particular IR, but whether this interaction mimics (agonizes) or blocks (antagonizes) the effects of the native regulatory molecules on target gene expression, as well as the specificity and strength of this interaction.
To determine RAR and/or RXR agonist activity of the compounds of the present invention, the CV-1 cells were transiently transfected by calcium phosphate coprecipitation according to the procedure of Berger et al., 41 J.Steroid Biochem. Mol. Biol., 733 (1992) with the following receptor expressing plasmids: pRShRARα: Giguere et al., 330 Nature, 624 (1987); pRShRARβ and pRShRARγ, Ishikawa et al., 4 Mol. Endocrin., 837 (1990); pRShRXRα, Mangelsdorf et al., 345 Nature, 224 (1990); and pRSmRXRβ and pRSmRXRγ, Mangelsdorf et al., 6 Genes & Devel., 329 (1992), the disclosures of which are herein incorporated by reference.

RARs = assay: Co-transfection assay, summary for the RARs; type: cell-based, human
Procedure: as §1, §2, §3
as §4, with “Furthermore, it determines not only whether a compound interacts with a particular IR, but whether this interaction mimics (agonizes) or blocks (antagonizes) the effects of the native regulatory molecules on target gene expression, as well as the specificity and strength of this interaction.” left out

RXRα = biological target: T1, RXRα (Homo sapiens, UniProt P19793); assay: Co-transfection assay, RXRα agonist activity; type: cell-based; settings: CV-1 cells, 40 hours; read-out: RXRα Pot (potency, EC50)
T1 construct: expressed in transfected cells; host or cells: CV-1 (African green monkey kidney fibroblasts)
T1 sequence (P19793 1-462): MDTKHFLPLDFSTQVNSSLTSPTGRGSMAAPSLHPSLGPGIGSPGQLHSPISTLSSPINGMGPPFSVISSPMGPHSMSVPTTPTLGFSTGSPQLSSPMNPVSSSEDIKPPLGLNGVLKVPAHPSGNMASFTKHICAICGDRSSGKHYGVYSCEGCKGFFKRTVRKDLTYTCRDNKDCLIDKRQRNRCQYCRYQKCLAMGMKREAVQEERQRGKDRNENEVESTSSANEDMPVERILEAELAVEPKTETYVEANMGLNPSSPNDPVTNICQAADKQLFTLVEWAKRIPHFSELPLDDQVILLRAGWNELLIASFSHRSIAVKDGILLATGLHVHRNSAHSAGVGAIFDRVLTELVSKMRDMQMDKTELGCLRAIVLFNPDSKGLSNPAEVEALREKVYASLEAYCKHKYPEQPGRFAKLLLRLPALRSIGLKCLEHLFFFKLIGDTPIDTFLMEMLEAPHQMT

[1] = system: ornithine decarboxylase (ODC); settings: literature; cited from earlier work

Structure (SMILES)	agonist type on RAR and RXR receptors (in words) (RAR and RXR receptors)	potency profile in comparison to 9-cis retinoic acid (in words) (RAR and RXR receptors)	RAR activity / selectivity (in words) (RARs)	other results
CC(/C=C/CC1CCCc2cc3c(cc21)C(C)(C)CCC3(C)C)=C\C(=O)O (racemic) [Compound 124b, (2E,4E)-3-Methyl-6-(1,2,3,4,5,6,7,8-octahydro-5,5,8,8-tetramethylanthracen-1-yl)hexa-2,4-dienoic acid]	pan-agonist	superior potency profiles		
CC(/C=C/C=C1/CCCc2cc3c(cc21)C(C)(C)CCC3(C)C)=C\C(=O)O [Compound 101b, (2E,4E)-3-Methyl-6-[(Z)-3,4,5,6,7,8-hexahydro-5,5,8,8-tetramethyl-2H-anthracen-1-ylidene]hexa-2,4-dienoic acid]	pan-agonist	superior potency profiles	extremely potent RAR active	
CC(/C=C/C=C1\CCCc2cc3c(cc21)C(C)(C)CCC3(C)C)=C\C(=O)O [Compound 109b, (2E,4E)-3-Methyl-6-[(E)-3,4,5,6,7,8-hexahydro-5,5,8,8-tetramethyl-2H-anthracen-1-ylidene]hexa-2,4-dienoic acid]			extremely potent RAR active; also recorded: RAR selective	
CC(/C=C/C=C1\CCOc2cc3c(cc21)C(C)(C)CCC3(C)C)=C\C(=O)O [Compound 119b, (2E,4E)-3-Methyl-6-[(E)-2,3,6,7,8,9-hexahydro-6,6,9,9-tetramethyl-benzo[g]chromen-4-ylidene]hexa-2,4-dienoic acid]			extremely potent RAR active; also recorded: RAR selective	
CC(/C=C/C=C1/CCOc2cc3c(cc21)C(C)(C)CCC3(C)C)=C\C(=O)O [Compound 144b]	pan-agonist	superior potency profiles	extremely potent RAR active	
CCN1CC\C(=C/C=C/C(C)=C/C(=O)O)c2cc3c(cc21)C(C)(C)CCC3(C)C [Compound 147b, (2E,4E)-3-methyl-6-[(E)1-ethyl-6,6,9,9-tetramethyl-2,3,6,7,8,9-hexahydro-1H-benzo[g]quinolin-4-ylidene]hexa-2,4-dienoic acid]				EC50 (RXRα): > 10 µM
CC1=C(/C=C/C(C)=C/C=C/C(C)=C/C(=O)O)C(C)(C)CCC1 [retinoic acid]				inhibition of TPA induction of ODC (in words) [1]: inhibits this induction of ODC by TPA
